Test results: US5476847A, “Derivatives of phosphinic acid useful as endothelin converting enzyme inhibitors” (priority 1994, dated 1995)

Target: T1, ECE (Cavia porcellus, UniProt P97739)
T1 construct: tissue Keystone Biologicals, Cleveland, Ohio; host or cells: frozen guinea pig lungs; lubrol PX-treated lung membranes
T1 sequence (P97739 1-754): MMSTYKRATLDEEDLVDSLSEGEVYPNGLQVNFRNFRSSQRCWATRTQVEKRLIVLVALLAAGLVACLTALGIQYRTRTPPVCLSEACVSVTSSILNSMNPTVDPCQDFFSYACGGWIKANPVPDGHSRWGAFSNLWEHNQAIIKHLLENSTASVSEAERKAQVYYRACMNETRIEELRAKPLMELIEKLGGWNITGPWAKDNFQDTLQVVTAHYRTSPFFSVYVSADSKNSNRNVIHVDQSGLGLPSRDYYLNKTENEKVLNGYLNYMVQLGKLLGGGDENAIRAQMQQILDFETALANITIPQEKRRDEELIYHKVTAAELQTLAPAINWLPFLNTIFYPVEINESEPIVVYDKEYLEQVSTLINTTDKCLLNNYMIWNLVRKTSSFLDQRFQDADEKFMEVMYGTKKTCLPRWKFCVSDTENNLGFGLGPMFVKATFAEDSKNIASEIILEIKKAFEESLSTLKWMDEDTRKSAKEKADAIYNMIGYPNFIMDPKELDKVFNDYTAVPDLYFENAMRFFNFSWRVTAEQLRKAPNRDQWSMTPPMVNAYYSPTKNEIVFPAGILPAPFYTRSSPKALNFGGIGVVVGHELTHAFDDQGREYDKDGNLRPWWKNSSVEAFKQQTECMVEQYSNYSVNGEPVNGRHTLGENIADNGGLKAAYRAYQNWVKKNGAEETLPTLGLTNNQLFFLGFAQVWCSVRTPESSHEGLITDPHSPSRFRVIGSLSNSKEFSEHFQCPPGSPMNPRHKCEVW
Experiment: In vitro ECE assay (inhibition of [125I]BET-1 to [125I]ET-1 conversion, lubrol-treated guinea pig lung membrane)
Assay type: biochemical
Conditions: L-GPLGM, 2 h preincubation at 4° C., 500 pM [125I]BET-1, table of examples, read-out: ECE IC50
From the text: The ECE assay is based on the quantitative determination of [^125 l]ET-1 released from [^125 l]BET-1 labeled on Tyrosine-13 by binding to the membrane-bound ET receptor. […] GPLGM was also found to contain a high density of ET receptors. Thus, this preparation was utilized as a source of both ECE and a saturating concentration of ET receptors for the quantitative determination of [251l]ET-1 from the conversion of [125l ]BET-1. Under selected experimental conditions of the ECE assay, specific [125l]ET-1 bound was directly related to ECE activity. Assays were carried out in the presence of varying concentrations of test compounds to evaluate their efficacy in inhibiting ECE activity.
Frozen guinea pig lungs (Keystone Biologicals,Cleveland, Ohio) are weighed and homogenized in 10 times gram tissue weight of solution A (50 mM Tris-HCl, pH 7.4, 0.25M sucrose, and 2 mM EDTA) using a Polytron tissue homogenizer (probe PTA-20S). Homogenization is repeated four times at speed setting seven each for 10 s and with 5-8 min intervals on ice in between homogenization. Homogenates are spun for 30 min at 2000 g (4100 rpm in an SS34 rotor or 3800 rpm in an SA-600 rotor). Supernatants containing membranes are carefully decanted and saved. Pellets are rehomogenized in solution A as described, and homogenates are spun at 2000 g for 30 min. Supernatants are removed, mixed with the supernatants from the first spin, and spun at 37000 rpm in a 45 Ti rotor (107022 g) for 60 min. Pellets containing membranes are suspended in solution B (10 mM Tris-HCl, pH 7.4, and 0.125M sucrose) using a Dounce homogenizer. Samples are divided into 1 ml fractions, rapidly frozen in a dry ice methanol bath, and stored at -80° C. All steps are carried out at 4° C.
GPLGM fractions prepared as described above are thawed and resuspended at a concentration of 1 mg membrane protein/mL in a solution containing 0.06% lubrol PX, 50 mM Tris-HCl (pH 7.4), and 100 mM NaCl. Stir the mixture for 1 h and then spin for 1 h at 37000 rpm in a 45 Ti rotor (107022 g). Discard the supernatants and resuspend the pellets in a solution containing 50 mM Tris-HCl (pH 7.4), and 100 mM NaCl using a Dounce homogenizer, and adjust the final volume to half the original volume. Spin the homogenates for 1 h at 37000 rpm in a 45 Ti rotor (107022 g). Suspend the membrane pellets in solution B and treat as described above. All steps are performed at 4° C.
ECE Assay: Samples of L-GPLGM containing 20 μg protein are incubated in a solution containing 100 mM Tris-HCl (pH 7), 100 mM NaCl, and 5 mg/ml BSA (Fraction V, 98-99% albumin) (Sigma Chemical Co.) at a final reaction volume of 100 μL. The ECE assay is initiated by the addition of [^125 l]BET-1 to obtain a final concentration of 500 pM. Reactions are carried out for 30 min at 37° C. Reactions are terminated by addition of 4 mL of solution C (10 mM Tris-HCl, pH 7.4, and 150 mM NaCl) at 4° C. followed by rapid filtration on Whatman GF/B glass microfiber filters. Filters are presoaked for 1 h at 4° C. in a solution containing 50 mM Tris-HCl (pH 7.4), 10 mg/mL BSA, and 0.1% sodium azide. Wash test tubes and filters four times with 4 mL of solution C at 4° C., and count radioactivity retained on the filters in a γ counter. Non-specific binding is determined in the presence of 1 μM of unlabeled ET-1 (Peninsula Laboratories, Inc., Belmont, Calif.) in the reaction mixture. All reactions are performed in duplicate.
To test the effect of test compounds on ECE activity, ECE assays are carried out in the presence of varying concentrations of the compounds. Assays are initiated following a 2 h incubation of L-GPLGM with the compound at 4° C. ECE activity in the presence of compounds is expressed as a percentage of control ECE activity of the membrane preparation, which is determined simultaneously.

Structure (SMILES) | IC50
O=C(N[C@@H](Cc1ccccc1)P(=O)(O)CC1(C(=O)N[C@@H](Cc2c[nH]c3ccccc23)C(=O)O)CCCC1)OCc1ccccc1 [Example 1] | 0.19 µM
O=C(N[C@@H](Cc1ccccc1)P(=O)(O)CC1(C(=O)N[C@@H](Cc2ccc(O)cc2)C(=O)O)CCCC1)OCc1ccccc1 [Example 2] | 0.13 µM
COc1ccc(CC(NC(=O)[C@H](CCCCNC(=O)OCc2ccccc2)NS(C)(=O)=O)P(=O)(O)CC2(C(=O)N[C@@H](Cc3c[nH]c4ccccc34)C(=O)O)CCCC2)cc1 (some centres unmarked) [Example 3A] | 0.05 µM
CS(=O)(=O)N[C@@H](CCCCNC(=O)OCc1ccccc1)C(=O)NC(Cc1ccc(O)cc1)P(=O)(O)CC1(C(=O)N[C@@H](Cc2c[nH]c3ccccc23)C(=O)O)CCCC1 (some centres unmarked) [Example 3B] | 0.055 µM
CS(=O)(=O)N[C@@H](CCCCNC(=O)OCc1ccccc1)C(=O)NC(Cc1ccc2ccccc2c1)P(=O)(O)CC1(C(=O)N[C@@H](Cc2c[nH]c3ccccc23)C(=O)O)CCCC1 (some centres unmarked) [Example 3C] | 0.055 µM
CC(C)CC(NC(=O)[C@H](CCCCNC(=O)OCc1ccccc1)NS(C)(=O)=O)P(=O)(O)CC1(C(=O)N[C@@H](Cc2c[nH]c3ccccc23)C(=O)O)CCCC1 (some centres unmarked) [Example 3D] | 0.055 µM
CS(=O)(=O)N[C@@H](CCCCNC(=O)OCc1ccccc1)C(=O)N[C@@H](Cc1ccccc1)P(=O)(O)CC1(C(=O)N[C@@H](Cc2ccc(O)cc2)C(=O)O)CCCC1 [Example 4] | 0.119 µM
COc1ccc(CC(NC(=O)[C@H](CCCCN)NS(C)(=O)=O)P(=O)(O)CC2(C(=O)N[C@@H](Cc3c[nH]c4ccccc34)C(=O)O)CCCC2)cc1 (some centres unmarked) [Example 5A] | 0.04 µM
CS(=O)(=O)N[C@@H](CCCCN)C(=O)NC(Cc1ccc(O)cc1)P(=O)(O)CC1(C(=O)N[C@@H](Cc2c[nH]c3ccccc23)C(=O)O)CCCC1 (some centres unmarked) [Example 5B] | 0.1 µM
CS(=O)(=O)N[C@@H](CCCCN)C(=O)N[C@@H](Cc1ccccc1)P(=O)(O)CC1(C(=O)N[C@@H](Cc2ccc(O)cc2)C(=O)O)CCCC1 [Example 5C] | 0.1 µM
O=C(N[C@@H](Cc1ccccc1)P(=O)(O)CC1(C(=O)N[C@@H](Cc2c[nH]c3ccccc23)C(=O)O)CCCC1)c1ccccc1 [Example 6.2B] | 0.25 µM
NCc1ccc(C(=O)N[C@@H](Cc2ccccc2)P(=O)(O)CC2(C(=O)N[C@@H](Cc3c[nH]c4ccccc34)C(=O)O)CCCC2)cc1 [Example 6] | 0.09 µM
O=C(NC(Cc1ccc(C(=O)N2CCOCC2)cc1)P(=O)(O)CC1(C(=O)N[C@@H](Cc2c[nH]c3ccccc23)C(=O)O)CCCC1)OCc1ccccc1 (some centres unmarked) [Example 7] | 0.05 µM
NC(=O)c1ccc(CC(NC(=O)OCc2ccccc2)P(=O)(O)CC2(C(=O)N[C@@H](Cc3c[nH]c4ccccc34)C(=O)O)CCCC2)cc1 (some centres unmarked) [Example 8A] | 0.29 µM
O=C(NC(Cc1ccc(C(=O)O)cc1)P(=O)(O)CC1(C(=O)N[C@@H](Cc2c[nH]c3ccccc23)C(=O)O)CCCC1)OCc1ccccc1 (some centres unmarked) [Example 8B] | 0.49 µM
O=C(NC(Cc1ccc(O)cc1)P(=O)(O)CC1(C(=O)N[C@@H](Cc2c[nH]c3ccccc23)C(=O)O)CCCC1)OCc1ccccc1 (some centres unmarked) [Example 8] | 0.085 µM
CC(C)CC(CP(=O)(O)C(CC(C)C)NC(=O)[C@H](CCCCNC(=O)OCc1ccccc1)NS(C)(=O)=O)C(=O)N[C@@H](Cc1c[nH]c2ccccc12)C(=O)O (some centres unmarked) [Example 10B] | 1.4 µM
CC(C)C(CP(=O)(O)C(Cc1ccccc1)NC(=O)[C@H](CCC(N)=O)NC(=O)OCc1ccccc1)C(=O)N[C@@H](Cc1c[nH]c2ccccc12)C(=O)O (some centres unmarked) [Example 10C] | 0.2 µM
CC(C)CC(CP(=O)(O)C(CCCCO)NC(=O)[C@H](CC(C)C)NS(C)(=O)=O)C(=O)N[C@@H](Cc1c[nH]c2ccccc12)C(=O)O (some centres unmarked) [Example 10D] | 0.15 µM
CC(C)CC(CP(=O)(O)C(CC1CCCC1)NC(=O)[C@H](CCCCNC(=O)OCc1ccccc1)NS(C)(=O)=O)C(=O)N[C@@H](Cc1c[nH]c2ccccc12)C(=O)O (some centres unmarked) [Example 10E] | 0.055 µM
